Reference: article PMC6270398, “Synthesis and Promising in Vitro Antiproliferative Activity of Sulfones of a 5-Nitrothiazole Series” (Molecules, 2012)

What was measured:
[1] = system: CHO cells; test: In vitro cytotoxicity evaluation on CHO cell line (MTT method); format: cell-based; details: for CC50: Cricetulus griseus, 24 h incubation with product, mean ± SD of three independent experiments, read-out: Cancer cell toxicity CHO CC50
Procedure: (§1) The antiproliferative activity of the synthesized compounds was evaluated against two different cancer cell lines, CHO and HepG2, employing the MTT method and doxorubicin as a reference drug. The cytotoxic activity in vitro was expressed as CC50 (µM), the concentration of compound that inhibits proliferation of cells by 50% as compared to untreated cells.
(§2) CHO and HepG2 cell lines were maintained at 37 °C, 6% CO2, 14% O2, 80% N2, with 90% humidity in RPMI supplemented with 10% fœtal bovine serum, 1% L-glutamine (200 mM) and penicillin (100 U/mL) / streptomycin (100 µg/mL) (complete RPMI medium).
(§3) In vitro cytotoxicity evaluation on CHO and HepG2 cell lines was performed according to the method described by Mosmann with slight modifications. Briefly, 5 × 10^3 cells in 100 µL of culture medium (RPMI + […]) were inoculated into each well of 96-well plates and incubated at 37 °C in a humidified 6% CO2, 14% O2, 80% N2 atmosphere. After 24 h incubation, 100 µL of medium with various product concentrations was added and the plates were incubated from 24 h (CHO) to 72 h (HepG2). Duplicate assays were performed for each sample. At the end of the treatment and incubation, the medium was aspirated from the wells and 10 µL yellow MTT (3-(4,5-dimethyl-2-thiazolyl)-2,5-diphenyl-2H-tetrazolium bromide) solution (5 mg MTT/mL in PBS) was added to each well with 100 µL of medium without fœtal bovine serum. Cells were incubated for 2 h at 37 °C to allow MTT […] by mitochondrial dehydrogenase in the viable cells. After 2 h, the MTT solution was aspirated and DMSO (100 µL) was added to each well to dissolve the resulting blue formazan crystals. Plates were then shaken vigorously (300 rpm) for a few minutes. The absorbance was measured at 570 nm with 630 nm as reference wavelength, using a microplate spectrophotometer. DMSO was used as blank and doxorubicin as positive control.
(§4) Cell viability was calculated as percentage of control (cells incubated without compound). The 50% cytotoxic concentrations (CHO CC50 and HepG2 CC50) were determined by non-linear regression analysis processed on dose-response curves, using the Table Curve software 2D v.5.0. CC50 values represent the mean value calculated from three independent experiments.

[2] = system: HepG2 cells; test: In vitro cytotoxicity evaluation on HepG2 cell line (MTT method); format: cell-based, human; details: for CC50: Homo sapiens, 72 h incubation with product, mean ± SD of three independent experiments, read-out: Cancer cell toxicity HepG2 CC50; for CC50 / antiproliferative activity on HepG2 cells (in words): HepG2 cell line, MTT; for antiproliferative effect times higher toward the HepG2 than toward the CHO cell line: ratio CHO CC50 / HepG2 CC50
Procedure: as §1, §2, §3, §4

Compound	melting point	CC50 [1]	CC50 [2]	antiproliferative effect times higher toward the HepG2 than toward the CHO cell line [2]	antiproliferative activity on CHO cells (in words) [1]	antiproliferative activity on HepG2 cells (in words) [2]
Cc1nc(CS(=O)(=O)c2ccccc2)c([N+](=O)[O-])s1 [2a, 2-methyl-5-nitro-4-phenylsulfonylmethyl-1,3-thiazole]	–	323 µM	24.6 µM	–	–	–
Cc1ccc(S(=O)(=O)Cc2nc(C)sc2[N+](=O)[O-])cc1 [2b, 2-Methyl-5-nitro-4-(tosylmethyl)-1,3-thiazole]	179 °C	237 µM	7.7 µM	31 times	–	–
Cc1nc(CS(=O)(=O)c2ccc(Cl)cc2)c([N+](=O)[O-])s1 [2c, 4-[(4-Chlorophenylsulfonyl)methyl]-2-methyl-5-nitro-1,3-thiazole]	180 °C	> 62.5 µM	13.4 µM	–	–	–
Cc1nc(CS(=O)(=O)c2ccc(Br)cc2)c([N+](=O)[O-])s1 [2d, 4-[(4-Bromophenylsulfonyl)methyl]-2-methyl-5-nitro-1,3-thiazole]	–	> 500 µM	11.7 µM	43 times	–	–
Cc1nc(CS(=O)(=O)c2ccc(F)cc2)c([N+](=O)[O-])s1 [2e, 4-[(4-Fluorophenylsulfonyl)methyl]-2-methyl-5-nitro-1,3-thiazole]	–	229 µM	19.3 µM	–	–	–
Cc1nc(CS(=O)(=O)c2cccc(F)c2)c([N+](=O)[O-])s1 [2f, 4-[(3-Fluorophenylsulfonyl)methyl]-2-methyl-5-nitro-1,3-thiazole]	154 °C	321 µM	23.6 µM	–	–	–
Cc1nc(CS(=O)(=O)c2cccc(C(F)(F)F)c2)c([N+](=O)[O-])s1 [2g, 2-Methyl-5-nitro-4-{[3-(trifluoromethyl)phenylsulfonyl]methyl}-1,3-thiazole]	121 °C	139 µM	25.6 µM	–	–	–
COc1ccc(S(=O)(=O)Cc2nc(C)sc2[N+](=O)[O-])cc1 [2h, 4-[(4-Methoxyphenylsulfonyl)methyl]-2-methyl-5-nitro-1,3-thiazole]	–	137 µM	20.6 µM	–	–	–
CCc1ccc(S(=O)(=O)Cc2nc(C)sc2[N+](=O)[O-])cc1 [2i, 4-[(4-Ethylphenylsulfonyl)methyl]-2-methyl-5-nitro-1,3-thiazole]	–	> 500 µM	239 µM	–	no activity was observed	no activity was observed
Cc1nc(CS(C)(=O)=O)c([N+](=O)[O-])s1 [2j, 2-Methyl-4-(methylsulfonylmethyl)-5-nitro-1,3-thiazole]	127 °C	> 250 µM	> 250 µM	–	no activity was observed	no activity was observed
Cc1nc(CS(=O)(=O)c2ccc(Br)s2)c([N+](=O)[O-])s1 [2k, 4-[(5-Bromothiophen-2-ylsulfonyl)methyl]-2-methyl-5-nitro-1,3-thiazole]	–	47.3 µM	13.8 µM	–	–	–
Cc1nc(CS(=O)(=O)c2ccc3ccccc3c2)c([N+](=O)[O-])s1 [2l, 2-Methyl-4-[(naphtalen-2-ylsulfonyl)methyl]-5-nitro-1,3-thiazole]	163 °C	106 µM	8.5 µM	–	–	–
Cc1ccc(S(=O)(=O)C(Cl)(Cl)c2nc(C)sc2[N+](=O)[O-])cc1 [3b, 4-[Dichloro(tosyl)methyl]-2-methyl-5-nitro-1,3-thiazole]	–	1.2 µM	1 µM	–	–	–
Cc1nc(C(Cl)(Cl)S(=O)(=O)c2ccc(Cl)cc2)c([N+](=O)[O-])s1 [3c, 4-[Dichloro(4-chlorophenylsulfonyl)methyl]-2-methyl-5-nitro-1,3-thiazole]	–	1.4 µM	1.1 µM	–	–	–
COc1cccc2c1C(=O)c1c(O)c3c(c(O)c1C2=O)C[C@@](O)(C(=O)CO)C[C@@H]3O[C@H]1C[C@H](N)[C@H](O)[C@H](C)O1 [Doxorubicin, reference compound]	–	0.6 µM	0.2 µM	–	–	–

Continued, in another order:

melting point	Compound	CC50 [1]	CC50 [2]	antiproliferative effect times higher toward the HepG2 than toward the CHO cell line [2]	antiproliferative activity on CHO cells (in words) [1]	antiproliferative activity on HepG2 cells (in words) [2]
169 °C	Cc1nc(C(Cl)(Cl)S(=O)(=O)c2ccccc2)c([N+](=O)[O-])s1 [3a, 4-[Dichloro(phenylsulfonyl)methyl]-2-methyl-5-nitro-1,3-thiazole]	2.5 µM	1.2 µM	–	–	–
165 °C	Cc1nc(C(Cl)(Cl)S(=O)(=O)c2ccc(Br)cc2)c([N+](=O)[O-])s1 [3d, 4-[(4-Bromophenylsulfonyl)dichloromethyl]-2-methyl-5-nitro-1,3-thiazole]	1.3 µM	1.2 µM	–	–	–
145 °C	Cc1nc(C(Cl)(Cl)S(=O)(=O)c2ccc(F)cc2)c([N+](=O)[O-])s1 [3e, 4-[Dichloro(4-fluorophenylsulfonyl)methyl]-2-methyl-5-nitro-1,3-thiazole]	1.3 µM	1.2 µM	–	–	–
